Several values for one entry are separate records, joined by “and”; a condition that tells them apart may be missing. Equal entries are not always repeated.
Key:
γ-secretase [1] = target: T1, γ-secretase (Homo sapiens (Human), UniProt P49768+Q92542); experiment: In vitro γ-secretase cleavage of Notch1 peptide substrate, HeLa membrane, Val1744 antibody; assay type: biochemical
Method: FIG. 4. […] Various concentrations of inhibitor were incubated with APP substrate (S4) or Notch peptide substrate containing the C-terminal biotinylated transmembrane domain of Notch1 and HeLa cell membrane in the presence of 0.25% CHAPSO. Aβ40 was detected by G2-10 antibody. […] Activities are expressed as percentage relative to reading that was produced in DMSO control. […] Various concentrations of S4 substrate were incubated with HeLa membrane in fixed concentrations of inhibitor as indicated. The double reciprocal velocity (1/v) and substrate concentrations (1/S) are plotted to determine the type of inhibition. […] Assays were conducted as described in FIG. 4A. […] The labeled samples were solubilized with RIPA buffer. Biotinylated proteins were captured with streptavidin-agarose and probed by immunoblotting using antibodies against biotin, PS1-CTF, PS1-NTF, Nicastrin, PEN-2 and APH-1a. HeLa cell membrane proteins were directly loaded onto lanes indicated by an arrow in the PEN-2 and APH-1a blots as positive controls. […] Upper panel: PS1-NTF; Lower panel: PS1-CTF. […] Rev.

γ-secretase [2] = target: T1, γ-secretase; experiment: In vitro γ-secretase assay, HeLa membrane, APP-derived substrates, ECL detection; assay type: biochemical
Method: The recombinant proteins were incubated with γ-secretase (40 μg/ml) in the presence or absence of 1 μM γ-secretase inhibitor L-685,458 (CAS [292632-98-5], shown below). The reaction mixture contains 0.25% 3[(3-cholamidopropyl) dimethylammonio]-2-hydroxypropanesulfonic acid (CHAPSO), 0.1 μg/μl BSA, protease inhibitor, 50 mM PIPES, pH 7.0, 5 mM MgCl2, 5 mM CaCl2 and 150 mM KCl. The reaction was incubated for 2.5 hr at 37° C. and stopped by adding RIPA buffer (150 mM NaCl, 1.0% NP-40, 0.5% sodium
[drawing 1] deoxycholate, 0.1% SDS, 50 mM Tris HCl, pH 8.0). The products were detected with various antibody combinations as previously described (Lai et al., 2003; J. Biol. Chem., 278: 22475-22481; Li et al., 2000, Proc. Natl. Acad. Sci. USA, 97: 6138-6143; Yin et al., 2007, J. Biol. Chem., 282:23639-23644) using electrochemiluminescence (ECL). The amount of product was determined using synthetic peptide or recombinant standards. The Km and Vmax were determined from the Michaelis-Menten equation Michaelis-Menten Kinetics (ν=Vm[S]/([…]; ν: initial rate; Vm: maximum velocity; Km: the Michaelis-Menten constant, S: substrate). P-values were calculated from Student t-test. 7.1.5 Cell-Based Aβ Production Assay and Western Blot

γ-secretase [3] = target: T2, γ-secretase (Mus musculus (Mouse), UniProt P49769); experiment: Cellular γ-secretase activity, secreted Aβ40 from N2A APP stable cells; assay type: cell-based; conditions: 48 hrs
Method: FIG. 5. […] The conditioned media were collected and secreted Aβ40 was measured with 6E10/G2-10 antibodies (mean±SEM; n=3). The activities of the peptide treatments were normalized to the DMSO treatment. […] The same experiments were performed as FIG. 5c. The cell lysates were analyzed by CT-15 antibody. Upper panel: full length APP. Lower panel: CTFs. […] The ΔE-Notch1 (a Notch construct with deletion of the extracellular portion and tagged by Myc) was transfected into HEK293 cells.
After transfection or compound treatment, conditioned cell media were collected and diluted in RIPA buffer. Secreted Aβ peptides were detected by ECL assay using biotinylated 6E10 and ruthenylated G2-10 antibodies.

γ-secretase [4] = target: T3, γ-secretase (Homo sapiens (Human), UniProt P49768); experiment: In vitro γ-secretase assay, solubilized γ-secretase, ECL; assay type: biochemical; conditions: Sb4 substrate
Description: The γ-secretase cleaved Aβ product derived from C100Flag substrate was detected by a pair of antibodies (biotinylated 4G8 and ruthenylated G2-10*) while Sb4 cleaved product was detected by ruthenylated G2-10* alone (FIG. 10a) and quantified using electrochemiluminescence (ECL) technology.
An in vitro assay was based on the one previously reported by Li et al. (2000), except we utilized Sb4 substrate that eliminated the need for biotinylated antibody. […] All assays incorporate ruthenylated G2-10* antibody to detect 40-site cleavage of APP or recombinant Sb4 substrate and quantitated activity by measuring ECL.

A20 mouse lymphoma cells = experiment: Lymphoma cell proliferation assay, [3H]thymidine incorporation; assay type: cell-based; conditions: 48 hours
Method: For a lymphoma cell proliferation assay, A20 mouse lymphoma cells were seeded in a 96-well plate at a concentration of 5×10^5 cells/ml in 100 μl RPMI media containing 2% fetal bovine serum. An additional 100 μl of media containing DMSO or γ-secretase inhibitor was added and incubated for 48 hours at 37° C. After this incubation, the cells were incubated for 5 hours with 2 μCi/ml [^3H]thymidine at 37° C. Proliferative response was then evaluated by harvesting the tritiated DNA from cells using a Skatron cell harvester and proliferation assessed as a function of [^3H]thymidine incorporation measured on a β-counter.

γ-secretase [5] = target: T3, γ-secretase; experiment: Exo-cell γ-secretase assay, HeLa cells, Sb4 substrate; assay type: cell-based
Method: Therefore, HeLa cells were first incubated with Sb4 substrate, as well as CHAPSO detergent as depicted in FIG. 14c. Cells were seeded at their indicated concentration in 96-well plates and allowed to attach overnight. The next day, media was removed and cells were washed once with PBS. Fresh media was then added containing 0.25% CHAPSO detergent, Sb4 substrate to a final concentration of 1 μM, and 1% DMSO or γ-secretase inhibitor. This was incubated for 2.5 hours at 37° C. Media was removed and cell debris was pelleted from this media for 5 min. at 3,500 rpm. Supernatant was then added to ruthenylated G2-10* antibody that recognizes cleaved product, but not uncleaved substrate. This was incubated for an additional 2 hours at room temperature. Finally, magnetic streptavidin beads were added to a final concentration of 80 μg/ml and incubated for 30 min. at room temperature. Assay buffer was added to the samples and γ-secretase-mediated cleavage of substrate was monitored using electrochemiluminescence (ECL) (Li et al., 2000). (FIG. 14c).
(§1) The potency of two structurally different GSIs was assayed in four unique γ-secretase activity assays. IC50 values were determined from the dose response curves using a non-linear regression analysis in the Prism software. An in vitro assay was based on the one previously reported by Li et al. (2000), except we utilized Sb4 substrate that eliminated the need for biotinylated antibody. The cell-based activity assay used N2A mouse neuroblastoma cells stably over-expressing APP and a biotinylated 4G8 antibody that binds the C-terminus of the amyloid beta peptide. The exo-cell assay incubated HeLa cells simultaneously with GSI, Sb4 substrate as well as 0.25% CHAPSO detergent prior to detecting substrate cleavage. Finally, the extended exo-cell assay first incubated HeLa cells with GSI for 24 hrs. Subsequently, the cells were washed 1× in PBS and then incubated with Sb4 substrate and CHAPSO detergent. The assay was then carried out exactly as described for the original exo-cell method. All assays incorporate ruthenylated G2-10* antibody to detect 40-site cleavage of APP or recombinant Sb4 substrate and quantitated activity by measuring ECL. The latter assays were performed as previously described (Li et al., 2000). In the in vitro assay, recombinant Sb4 substrate was incubated for 2.5 hours at 37° C. in pH 7.0 PIPES buffer in the presence of 0.25% CHAPSO detergent and solubilized γ-secretase at a final concentration of 40 ng/ul. The detection of cleaved substrate was determined using ruthenylated G2-10* antibody. Since the Sb4 substrate is biotinylated additional 6E10 biotinylated antibody used in earlier assays is not required. In the cell-based assay, N2A mouse neuroblastoma cells that stably overexpress amyloid precursor protein were incubated with γ-secretase inhibitors in a final concentration of 1% DMSO for 24 hrs. Following incubation, the supernatant was removed from the cells and assayed for Aβ40, the cleaved APP product, using ruthenylated G2-10* antibody as well as biotinylated 4G8 antibody.

γ-secretase [6] = target: T3, γ-secretase; experiment: Extended exo-cell γ-secretase assay, HeLa cells; assay type: cell-based; conditions: 24 hrs pretreatment; read-out: Extended Exo-Cell (nM), IC50
Method: as §1, with “In the cell-based assay, N2A mouse neuroblastoma cells that stably overexpress amyloid precursor protein were incubated with γ-secretase inhibitors in a final concentration of 1% DMSO for 24 hrs. Following incubation, the supernatant was removed from the cells and assayed for Aβ40, the cleaved APP product, using ruthenylated G2-10* antibody as well as biotinylated 4G8 antibody.” left out
The exo-cell assay was adapted to monitor real-time γ-secretase activity and inhibition over extended times of pretreatment regimens. […] This modified, extended treatment exo-cell assay is capable of quantifying remaining γ-secretase activity following drug treatment on virtually any cell type. The IC50 values for Compound E and GSI-34 were calculated using the extended exo-cell assay (Table 3 and FIG. 15d). […]

γ-secretase [7] = target: T2, γ-secretase; experiment: Cell-based activity assay, N2A cells stably over-expressing APP; conditions: 24 hrs, Aβ40; read-out: Cell-based (nM), IC50
Method: as §1

γ-secretase [8] = target: T3, γ-secretase; experiment: AICD production (ε-cleavage), membranes of transfected HEK293 cells, Western blot; assay type: biochemical
Method: (§2) FIG. 3. Effect of the inhibitory domain on in vitro γ-secretase activity. […] The γ-secretase cleavage site is indicated by an arrow between orange and blue shades. The Aβ17-23 region is marked by dotted square. (B) The kinetic analyses of γ-secretase reactivity with βCTF and βCTFΔ substrates. […] The product Aβ40 was assayed with biotinylated 6E10 and ruthenylated G2-10 antibodies by ECL. […] Note: […] The product Aβ38 was assayed with biotinylated 6E10 and ruthenylated Aβ38 antibodies (purchased from Dr. […]) (data represent the mean of duplicates with variance<10%). (E) The effect of an inhibitory domain on γ-secretase activity for ACID production. HEK293 cell membrane was prepared from cells that have been transfected with β[…] et al., 1999) and βCTFΔ(SPA4CTΔ) constructs for 48 hours. Cell membranes (2 mg/ml) were incubated in the absence and presence of 2 μM L-685,458 and then analyzed by Western blotting with CT-15 antibody (Chen et al., 2002). It was next determined whether γ-secretase from other sources has the same preference for the βCTFΔ substrate. […] Product formation was monitored by G2-10 and G2-11 antibodies, respectively. […] In addition, the γ-secretase activity was assayed for Aβ38 production and ε-cleavage (FIGS. 3D and 3E). The Aβ38-site cleavage was detected with a combination of biotinylated 6E10 and ruthenylated anti-Aβ38 antibodies. […]

γ-secretase [9] = target: T2, γ-secretase; experiment: In vitro γ-secretase activity from mouse brain membrane; assay type: biochemical
Method: as §2

VKSEPVEPPL [S2-site derived Notch peptide, N-terminal residues of NEXT]
inhibition of γ-secretase activity, Notch processing (γ-secretase [1]): did not inhibit | inhibition of γ-secretase activity, APP processing (γ-secretase [2]): did not inhibit

COC(=O)CC[C@@H](NC(=O)[C@H](N)CC(=O)OC)C(=O)N[C@H](C)C(=O)N[C@H](Cc1ccccc1)C(=O)N[C@H](Cc1ccccc1)C(=O)N[C@@H](C(=O)N[C@H](CC(C)C)C(N)=O)C(C)C [RI-PM-1]
inhibition at 100 µM (γ-secretase [3]; 100 μM, read-out: inhibition of the production of Aβ): 70% | effect on secreted Aβ species (γ-secretase [3]; 100, 60 and 30 μM): reduces secreted Aβ species in a dose dependent manner

O=C(COc1ccc(F)cc1)Nc1ccc2c(c1)CC1CCC(C2)C1NS(=O)(=O)c1ccc(Cl)s1 (centres unmarked) [GSI-34]
IC50 (γ-secretase [4]): 1 nM | reduction of cellular proliferation (A20 mouse lymphoma cells; 300 nM): 30% | inhibition of cellular proliferation (A20 mouse lymphoma cells): able to inhibit cellular proliferation | IC50 (γ-secretase [5]; ECL detection, read-out: Exo-Cell (nM), IC50): 5.9 nM | IC50 (γ-secretase [5]; HTRF detection, read-out: IC50, exo-cell assay): 5.4 nM | IC50 (γ-secretase [6]): 38.7 nM and 39 nM | IC50 (γ-secretase [7]): 32.4 nM

B1: βCTFΔ: βCTF in which the Aβ17-23 inhibitory domain is deleted (protein, listed as Homo sapiens)
chain: GSHMDAEFRHDSGYEVHHQKVGSNKGAIIGLMVGGVVIATVIVITLVMLKKKQYTSIHHGVVEVDAAVTPEERHLSKMQQNGYENPTYKFFEQMQNDYKDDDDK
effect of domain deletion on ε-cleavage (AICD) (γ-secretase [8]): no effect | reaction rate of hydrolysis compared to βCTF, 40-site (γ-secretase [9]; G2-10): 25 times | reaction rate of hydrolysis compared to βCTF, 42-site (γ-secretase [9]; G2-11): 11 times

Reference: patent US9023767B2, “γ-Secretase substrates and methods of use” (Memorial Sloan-Kettering Cancer Center, priority 2009, dated 2015)
